The subject of one data set is HT-29 cells. In words: MTT assay, induction of cell death by sphingolipids. Format: cell-based, human. The procedure:
The activity of sphingosine, sphinganine and 1-deoxy-5-hydroxy-sphinganine in a human colon cancer cell line was investigated. The structures of the tested compounds appear below. [drawing 4]
An MTT assay was used to determine the cytotoxicity of the compounds shown above. Only cells with intact mitochondria are able to form formazane crystals, whereas late apoptotic and necrotic cells are not. The optical density of formazane crystals is used to infer cell viability. A 15 μM treatment of 1-deoxy-5-hydroxy-sphinganine results in nearly 100% cell death in HT-29 cells after 24 hours.
On the technique in general: Formazan colour is commonly taken as a measure of viable cells.

The subject of the next data set is C3H 10T1/2 cells. The conditions noted are these: cited from earlier work; for promotion of transformed foci by phorbol esters: levels that affected protein kinase C but not noticeably cytotoxic.
The test system of data set [1] is renal bladder and colon cancer cell lines. To be noted: cited from earlier work.
Data set [2] relates to ACF (DMH-initiated colonic tumors). In words: Chemically (DMH) induced colon cancer model, aberrant crypt foci (ACF) after dietary supplementation. The conditions noted are these: for ACF: four weeks after DMH, control 30.2±4.19. Format: in vivo, Female CF1 mice. The procedure: Female CF1 mice were injected with DMH to initiate colonic tumors. After initiation, the mice were fed and AIN 76A diet supplemented with GluAcCer (0.025 or 0.1% of the diet). The control group was fed the AIN 76A diet without supplements (one group without DMH and the other with DMH only). After four weeks, the mice were killed, the colons excised, and evaluated for the appearance of ACF.

The target in data set [3] is T1, β-glucuronidase from E. coli (Escherichia coli, UniProt P05804).
T1 construct: purchased Sigma
T1 sequence (P05804 whole entry): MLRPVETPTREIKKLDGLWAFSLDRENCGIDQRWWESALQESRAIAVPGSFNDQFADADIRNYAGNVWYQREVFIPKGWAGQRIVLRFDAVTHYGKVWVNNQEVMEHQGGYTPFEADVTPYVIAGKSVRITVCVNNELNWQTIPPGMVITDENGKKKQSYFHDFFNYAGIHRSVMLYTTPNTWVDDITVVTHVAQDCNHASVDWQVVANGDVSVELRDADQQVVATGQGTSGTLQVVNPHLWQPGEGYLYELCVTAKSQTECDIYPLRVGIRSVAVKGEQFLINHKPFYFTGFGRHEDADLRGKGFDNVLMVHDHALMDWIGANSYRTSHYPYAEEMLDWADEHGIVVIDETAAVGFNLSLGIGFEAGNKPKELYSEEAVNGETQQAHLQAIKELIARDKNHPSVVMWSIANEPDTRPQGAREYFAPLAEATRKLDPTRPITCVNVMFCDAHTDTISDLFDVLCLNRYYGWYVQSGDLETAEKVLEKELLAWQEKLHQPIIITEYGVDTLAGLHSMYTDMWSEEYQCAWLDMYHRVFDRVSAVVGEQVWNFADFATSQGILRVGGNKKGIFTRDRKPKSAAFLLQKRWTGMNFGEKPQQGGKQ
In words: Cleavage of GluAcCer by bacterial β-glucuronidase. It is filed as biochemical. The conditions noted are these: β-glucuronidase from E. coli (Sigma), supplier's instructions. From the text: Glucornoylceramide (GluAcCer), a ceramide with a glucuronic acid headgroup was synthesized according to the methods described above. The metabolism of GluAcCer requires β-glucuronidase, an enzyme found in bacteria but not in human intestinal cells. Accordingly, dietary GluAcCer cannot be digested in the small intestine but should be hydrolyzed in the colon by the colonic microflora.

The next data set has as its system colonic crypts. In words: Cell proliferation in colonic crypts of DMH-treated mice fed GluAcCer. Format: in vivo. The procedure: Female CF1 mice were injected with DMH to initiate colonic tumors. […] The control group was fed the AIN 76A diet without supplements (one group without DMH and the other with DMH only). After four weeks, the mice were killed, the colons excised, and evaluated for the appearance of ACF.
The effect of GluAcCer on cell proliferation was also investigated since a deregulation of cell growth is observed in carcinogenesis. […] Therefore, feeding synthetic GluAcCer to mice suppresses the formation of early stages in colon carcinogenesis, possibly by restricting the proliferation to the lower half of the colonic crypt.

Another data set concerns DMH-induced tumors. The conditions noted are these: cited from earlier work.
The conditions of data set [4]: mouse, in vivo; cited from earlier work.
Data set [5] has as its system aberrant colonic crypts induced by DMH. The conditions noted are these: diet supplemented with 0.05% sphingomyelin, analyzed on week 7; cited from earlier work.
The conditions of data set [6]: in vivo; cited from earlier work.

With `CCCCCCCCCCCCC/C=C/C(O)C(N)CO` [sphingosine, D-erythro-4-trans-sphinganine], in the data set with HT-29 cells (after 24 hours), the “treatment required to produce comparable (nearly 100%) cell death” value amounted to 50 µM. In the data set with C3H 10T1/2 cells, the “number of transformed foci in cells treated with just γ-irradiation” value is “reduced the number of transformed foci” and the “promotion of transformed foci by phorbol esters” value is recorded as “completely blocked”.

Regarding Fumonisin B, in data set [1], the cytostatic activity result is listed as “has cytostatic activity”.

For `CCCCCCCCCCCCCCC[C@@H](O)[C@@H](N)CO` [sphinganine], the “treatment required to produce comparable (nearly 100%) cell death” value with HT-29 cells (after 24 hours) came to 50 µM. Moreover, in the data set with C3H 10T1/2 cells, the “number of transformed foci in cells treated with just γ-irradiation” value is “reduced the number of transformed foci” and the “promotion of transformed foci by phorbol esters” value is “completely blocked”.

Take `CCCCCCCCCCCCC/C=C/[C@@H](O)[C@H](CO[C@@H]1O[C@H](C(=O)O)[C@@H](O)[C@H](O)[C@H]1O)NC(=O)CCCCCCCCCCCCCCC` [GluAcCer, 1-O-B-D-Glucuronoyl-2N-palmitoylsphingosine]: the ACF is 21 ±2.94 in data set [2] (0.025% GluAcCer in AIN 76A diet) and 19.2±3.09 in data set [2] (0.1% GluAcCer in AIN 76A diet). Also, in [2] (0.025 or 0.1% of the diet, versus control (FIG. 12)), the “inhibition of ACF formation” value is on record as 20-30%. Besides, the “ability to be cleaved by bacterial enzymes” value in data set [3] was “cleaved by bacterial enzymes”. The “proliferation in the lower half of the colonic crypts” value with colonic crypts (GluAcCer (FIG. 13b)) is “reduced the proliferation”. In addition, the “proliferation in the upper half of the crypts” value in the data set with colonic crypts (both concentrations of GluAcCer in the diet (FIG. 13a)) is listed as “reduced proliferation in the upper half of the crypts in a dose dependent manner”.

Turning to sphingomyelin, in the data set with DMH-induced tumors (milk sphingomyelin pilot and buttermilk sphingomyelin experiment), the “tumor incidence versus control” value is listed as “about half”. Further, in the data set with DMH-induced tumors (second study with buttermilk sphingomyelin, histological analyses), the “tumor type (adenomas versus adenocarcinomas)” value is recorded as “more adenomas versus adenocarcinomas than for the control”. Moreover, the “number of overall tumors” value in the data set with DMH-induced tumors (second study with buttermilk sphingomyelin) is “no reduction”. Also, in [4], the “label appeared in liver sphingolipids” value is reported as “About 5%” and the “radiolabel progressed into the colon” value is given as 3-5%. In data set [5], the “reduction in the number of aberrant colonic crypts induced by DMH” value is on record as 50%. In data set [6], the “peak absorption of radiolabel after feeding” value was 10 h; the “radiolabel found in feces, mainly as ceramide” value is recorded as 21-46%; the “radiolabel recovered in lymph” value was “up to 30%”.

With `CCCCCCCCCCCCCC(O)CC(O)C(C)N` (stereo not drawn) [1-deoxy-5-hydroxy-sphinganine], the “potency in inducing cell death relative to sphingosine and sphinganine” value in the data set on HT-29 cells is on record as “at least twice as potent”. The compound also came in with a cell death in the data set with HT-29 cells (15 μM treatment, after 24 hours) of roughly 100%.

The values are drawn from patent publication US6610835B1, “Sphingolipid derivatives and their methods of use” (Emory University, priority 1998, dated 2003).
